Consider one compound from article PMC5218480 (PLoS ONE, 2017).

The experiment concerns MV-4-11 cells. As to the kind of experiment: Gene expression microarray analysis (Affymetrix PrimeView) and GSEA. It counts as cell-based, human. The arrangement: RFU PODN (11730768_x_at) / Fold change /veh PODN (11730768_x_at) / RFU LINC00158 (11744669_a_at) / Fold change /veh LINC00158 (11744669_a_at) / RFU DUSP10 (11751237_a_at) / Fold change /veh DUSP10 (11751237_a_at) / RFU ID3 (11757404_x_at) / Fold change /veh ID3 (11757404_x_at) / RFU PLEKHG5 (11737974_s_at) / Fold change /veh PLEKHG5 (11737974_s_at) / RFU LRRC4B (11730491_at) / Fold change /veh LRRC4B (11730491_at) / RFU GIMAP4 (11747438_a_at) / Fold change /veh GIMAP4 (11747438_a_at) / RFU KRT8 (11758183_x_at) / Fold change /veh KRT8 (11758183_x_at) / RFU CNN1 (11734310_a_at) / Fold change /veh CNN1 (11734310_a_at) / RFU VPS37D (11726825_at) / Fold change /veh VPS37D (11726825_at) / RFU C10orf10 (11716522_x_at) / Fold change /veh C10orf10 (11716522_x_at) / RFU KIR2DL2 /// KIR2DL4 /// KIR2DL5A /// KIR2DL5B /// KIR2DS1 /// KIR2DS2 /// KIR2DS3 /// KIR2DS4 /// KIR3DL3 /// KIR3DL3 /// KIR3DS1 (11738374_at) / Fold change /veh KIR2DL2 /// KIR2DL4 /// KIR2DL5A /// KIR2DL5B /// KIR2DS1 /// KIR2DS2 /// KIR2DS3 /// KIR2DS4 /// KIR3DL3 /// KIR3DL3 /// KIR3DS1 (11738374_at) / RFU C1QL1 (11718748_at) / Fold change /veh C1QL1 (11718748_at) / RFU TMPRSS4 (11747572_a_at) / Fold change /veh TMPRSS4 (11747572_a_at) / RFU HAMP (11756126_x_at) / Fold change /veh HAMP (11756126_x_at) / RFU RNFT2 (11725882_a_at) / Fold change /veh RNFT2 (11725882_a_at) / RFU NR4A2 (11747474_a_at) / Fold change /veh NR4A2 (11747474_a_at) / RFU ABCC12 (11746883_a_at) / Fold change /veh ABCC12 (11746883_a_at) / RFU TMEM136 (11760407_x_at) / Fold change /veh TMEM136 (11760407_x_at) / RFU CLDN22 /// WWC2 (11732394_at) / Fold change /veh CLDN22 /// WWC2 (11732394_at) / RFU HLA-DPB1 (11760878_x_at) / Fold change /veh HLA-DPB1 (11760878_x_at) / RFU SPINT1 (11716480_a_at) / Fold change /veh SPINT1 (11716480_a_at) / RFU GAP43 (11754022_s_at) / Fold change /veh GAP43 (11754022_s_at) / RFU A4GNT (11735810_at) / Fold change /veh A4GNT (11735810_at) / RFU PRB3 (11715151_x_at) / Fold change /veh PRB3 (11715151_x_at) / RFU TUBB4B (11761932_at) / Fold change /veh TUBB4B (11761932_at) / RFU CAPN14 (11732068_a_at) / Fold change /veh CAPN14 (11732068_a_at) / RFU TMCC2 (11721928_a_at) / Fold change /veh TMCC2 (11721928_a_at) / RFU IRGQ (11745062_a_at) / Fold change /veh IRGQ (11745062_a_at) / RFU FAM174B (11720279_a_at) / Fold change /veh FAM174B (11720279_a_at) / RFU TMPRSS4 (11748680_a_at) / Fold change /veh TMPRSS4 (11748680_a_at) / RFU FAM212B (11763350_a_at) / Fold change /veh FAM212B (11763350_a_at) / RFU PLEKHG5 (11743358_a_at) / Fold change /veh PLEKHG5 (11743358_a_at) / RFU ZSCAN30 (11745921_a_at) / Fold change /veh ZSCAN30 (11745921_a_at) / RFU CMKLR1 (11741424_a_at) / Fold change /veh CMKLR1 (11741424_a_at) / RFU LOC101060620 /// MAPK8IP1 (11723275_at) / Fold change /veh LOC101060620 /// MAPK8IP1 (11723275_at) / RFU SPTSSB (11747773_x_at) / Fold change /veh SPTSSB (11747773_x_at) / RFU PRSS12 (11739890_at) / Fold change /veh PRSS12 (11739890_at) / RFU BIN1 (11741810_x_at) / Fold change /veh BIN1 (11741810_x_at) / RFU WNT11 (11732464_a_at) / Fold change /veh WNT11 (11732464_a_at) / RFU C10orf10 (11716521_a_at) / Fold change /veh C10orf10 (11716521_a_at) / RFU C5orf56 (11738089_at) / Fold change /veh C5orf56 (11738089_at) / RFU CYB561 (11721691_x_at) / Fold change /veh CYB561 (11721691_x_at) / RFU ANKRD19P (11752326_a_at) / Fold change /veh ANKRD19P (11752326_a_at) / RFU OR2T12 /// OR2T33 /// OR2T8 (11738714_s_at) / Fold change /veh OR2T12 /// OR2T33 /// OR2T8 (11738714_s_at) / RFU VCAN (11748164_a_at) / Fold change /veh VCAN (11748164_a_at) / RFU JSRP1 (11732532_at) / Fold change /veh JSRP1 (11732532_at) / RFU KRTAP10-11 (11738290_x_at) / Fold change /veh KRTAP10-11 (11738290_x_at) / RFU MYO3A (11730013_a_at) / Fold change /veh MYO3A (11730013_a_at) / RFU EBF3 (11725865_a_at) / Fold change /veh EBF3 (11725865_a_at) / RFU CAMK2N1 (11719241_x_at) / Fold change /veh CAMK2N1 (11719241_x_at) / RFU C5orf56 (11738088_a_at) / Fold change /veh C5orf56 (11738088_a_at) / RFU OLFML3 (11715873_a_at) / Fold change /veh OLFML3 (11715873_a_at) / RFU LOC100653217 /// NTM (11731650_a_at) / Fold change /veh LOC100653217 /// NTM (11731650_a_at) / RFU MAPK11 (11762145_a_at) / Fold change /veh MAPK11 (11762145_a_at) / RFU FIZ1 (11724087_x_at) / Fold change /veh FIZ1 (11724087_x_at) / RFU OASL (11726364_x_at) / Fold change /veh OASL (11726364_x_at) / RFU SOX15 (11748057_x_at) / Fold change /veh SOX15 (11748057_x_at) / RFU CD79A (11719716_a_at) / Fold change /veh CD79A (11719716_a_at) / RFU HIST1H1D (11736915_at) / Fold change /veh HIST1H1D (11736915_at) / RFU CASKIN2 (11723855_a_at) / Fold change /veh CASKIN2 (11723855_a_at) / RFU LOC730098 (11760151_x_at) / Fold change /veh LOC730098 (11760151_x_at) / RFU OR4N2 (11742367_at) / Fold change /veh OR4N2 (11742367_at) / RFU PRRT2 (11749266_a_at) / Fold change /veh PRRT2 (11749266_a_at) / RFU SNX32 (11753110_a_at) / Fold change /veh SNX32 (11753110_a_at) / RFU CDHR5 (11726645_a_at) / Fold change /veh CDHR5 (11726645_a_at) / RFU RCAN1 (11760418_a_at) / Fold change /veh RCAN1 (11760418_a_at) / RFU FAM167A (11723789_a_at) / Fold change /veh FAM167A (11723789_a_at) / RFU FAM26E (11764081_at) / Fold change /veh FAM26E (11764081_at) / RFU ISYNA1 (11749810_s_at) / Fold change /veh ISYNA1 (11749810_s_at) / RFU ACY1 (11761880_at) / Fold change /veh ACY1 (11761880_at) / RFU 11764098_at / Fold change /veh 11764098_at / RFU SAMD14 (11745864_x_at) / Fold change /veh SAMD14 (11745864_x_at) / RFU NPB (11741838_a_at) / Fold change /veh NPB (11741838_a_at) / RFU TMPRSS6 (11731388_a_at) / Fold change /veh TMPRSS6 (11731388_a_at) / RFU KRTAP10-2 (11738614_at) / Fold change /veh KRTAP10-2 (11738614_at) / RFU ARHGAP8 /// PRR5-ARHGAP8 (11727945_x_at) / Fold change /veh ARHGAP8 /// PRR5-ARHGAP8 (11727945_x_at) / RFU KRTAP5-7 /// NADSYN1 (11734609_at) / Fold change /veh KRTAP5-7 /// NADSYN1 (11734609_at) / RFU RASL12 (11751679_a_at) / Fold change /veh RASL12 (11751679_a_at) / RFU CDKN2B (11736163_a_at) / Fold change /veh CDKN2B (11736163_a_at) / RFU PRF1 (11729649_at) / Fold change /veh PRF1 (11729649_at) / RFU, ZNF638 /// ZNF638-IT1 / Fold change vs veh, ZNF638 /// ZNF638-IT1 / RFU, PANK3 / Fold change vs veh, PANK3 / RFU, SH3YL1 / Fold change vs veh, SH3YL1 / RFU, ZEB2 / Fold change vs veh, ZEB2 / RFU, NRIP1 / Fold change vs veh, NRIP1 / RFU, PTTG1IP / Fold change vs veh, PTTG1IP / RFU, CAPN2 / Fold change vs veh, CAPN2 / RFU, MED14 / Fold change vs veh, MED14 / RFU, SNORA58 / Fold change vs veh, SNORA58 / RFU, C1orf63 / Fold change vs veh, C1orf63 / RFU, LRRFIP1 / Fold change vs veh, LRRFIP1 / RFU, NDUFAF7 / Fold change vs veh, NDUFAF7 / RFU, SLC12A2 / Fold change vs veh, SLC12A2 / RFU, IBTK / Fold change vs veh, IBTK / RFU, ESF1 / Fold change vs veh, ESF1 / Fold change vs veh, TMEM50B / RFU, TAOK1 / Fold change vs veh, TAOK1 / RFU, ACBD3 / Fold change vs veh, ACBD3 / RFU, TMA16 / Fold change vs veh, TMA16 / RFU, RWDD3 / Fold change vs veh, RWDD3 / RFU, BCAT1 / Fold change vs veh, BCAT1 / RFU, EDEM3 / Fold change vs veh, EDEM3 / RFU, TMEM33 / Fold change vs veh, TMEM33 / RFU, WDR75 / Fold change vs veh, WDR75 / RFU, AHCTF1 / Fold change vs veh, AHCTF1 / RFU, TFRC / Fold change vs veh, TFRC / RFU, ZDHHC17 / Fold change vs veh, ZDHHC17 / RFU, NOM1 / Fold change vs veh, NOM1 / RFU, ARL8B / Fold change vs veh, ARL8B / RFU, ZBTB11 / Fold change vs veh, ZBTB11 / RFU, TAMM41 / Fold change vs veh, TAMM41 / RFU, KIAA1704 /// LOC100996395 / Fold change vs veh, KIAA1704 /// LOC100996395 / RFU, ING1 / Fold change vs veh, ING1 / RFU, TRMT61B / Fold change vs veh, TRMT61B / RFU, FUBP3 / Fold change vs veh, FUBP3 / RFU, TP53 / Fold change vs veh, TP53 / RFU, TNKS2 / Fold change vs veh, TNKS2 / RFU, ZFP14 / Fold change vs veh, ZFP14 / RFU, ACTR2 / Fold change vs veh, ACTR2 / RFU, PPP3R1 / Fold change vs veh, PPP3R1 / RFU, PIK3R1 / Fold change vs veh, PIK3R1 / RFU, HNRNPA1 / Fold change vs veh, HNRNPA1 / RFU, RNF170 / Fold change vs veh, RNF170 / RFU, ZNF28 / Fold change vs veh, ZNF28 / RFU, RNGTT / Fold change vs veh, RNGTT / RFU, OGT / Fold change vs veh, OGT / RFU, BRD1 / Fold change vs veh, BRD1 / RFU, MARS / Fold change vs veh, MARS / RFU, ZNF655 / Fold change vs veh, ZNF655 / RFU, FAHD1 / Fold change vs veh, FAHD1 / RFU, BDP1 / Fold change vs veh, BDP1 / RFU, LRRCC1 / Fold change vs veh, LRRCC1 / RFU, ARID1A / Fold change vs veh, ARID1A / RFU, ZNF146 / Fold change vs veh, ZNF146 / RFU, ZNF330 / Fold change vs veh, ZNF330 / RFU, GPN3 / Fold change vs veh, GPN3 / RFU, C9orf123 / Fold change vs veh, C9orf123 / RFU, N4BP2L2 / Fold change vs veh, N4BP2L2 / RFU, ARFIP1 / Fold change vs veh, ARFIP1 / RFU, FAM179B / Fold change vs veh, FAM179B / RFU, BCL10 / Fold change vs veh, BCL10 / RFU, UHRF1BP1L / Fold change vs veh, UHRF1BP1L / RFU, BET1 / Fold change vs veh, BET1 / RFU, CNOT2 / Fold change vs veh, CNOT2 / RFU, ZNF268 / Fold change vs veh, ZNF268 / Fold change vs veh, ZNF507 / RFU, DGCR2 / Fold change vs veh, DGCR2 / RFU, WDSUB1 / Fold change vs veh, WDSUB1 / Fold change vs veh, HSP90B1 /// MIR3652 / RFU, ADSS / Fold change vs veh, ADSS / RFU, GK / Fold change vs veh, GK / RFU, ZNF148 / Fold change vs veh, ZNF148 / RFU, TAF9 / Fold change vs veh, TAF9 / RFU, SLC1A5 / Fold change vs veh, SLC1A5 / RFU, SLMO2 / Fold change vs veh, SLMO2 / RFU, ABCC4 / Fold change vs veh, ABCC4 / RFU, LOC101060439 /// RAP1B / Fold change vs veh, LOC101060439 /// RAP1B / RFU, RFX7 / Fold change vs veh, RFX7 / RFU, GTPBP10 / Fold change vs veh, GTPBP10 / RFU, CNEP1R1 / Fold change vs veh, CNEP1R1 / RFU, BIVM-ERCC5 /// ERCC5 / Fold change vs veh, BIVM-ERCC5 /// ERCC5 / RFU, ILF3 / Fold change vs veh, ILF3 / RFU 11762660_at / Fold change /veh 11762660_at / RFU VCAN (11757783_s_at) / Fold change /veh VCAN (11757783_s_at) / RFU DDX43 (11728927_at) / Fold change /veh DDX43 (11728927_at) / RFU KRT8 (11758188_x_at) / Fold change /veh KRT8 (11758188_x_at) / RFU NKD1 (11759106_at) / Fold change /veh NKD1 (11759106_at) / RFU SRD5A1 (11742802_a_at) / Fold change /veh SRD5A1 (11742802_a_at) / RFU TPSAB1 /// TPSB2 (11721975_s_at) / Fold change /veh TPSAB1 /// TPSB2 (11721975_s_at) / RFU GSTM3 (11746129_a_at) / Fold change /veh GSTM3 (11746129_a_at) / RFU IL23R (11737362_x_at) / Fold change /veh IL23R (11737362_x_at) / RFU TMEM51 (11727254_a_at) / Fold change /veh TMEM51 (11727254_a_at) / RFU PIWIL2 (11732686_x_at) / Fold change /veh PIWIL2 (11732686_x_at) / RFU ORM1 (11744905_x_at) / Fold change /veh ORM1 (11744905_x_at) / RFU CCDC152 (11743942_at) / Fold change /veh CCDC152 (11743942_at) / RFU ECM1 (11717891_a_at) / Fold change /veh ECM1 (11717891_a_at) / RFU IL23R (11748794_a_at) / Fold change /veh IL23R (11748794_a_at) / RFU TNFAIP8L3 (11732012_x_at) / Fold change /veh TNFAIP8L3 (11732012_x_at) / RFU MBOAT4 (11741988_at) / Fold change /veh MBOAT4 (11741988_at) / RFU 11764193_at / Fold change /veh 11764193_at / RFU TMEM53 (11763286_at) / Fold change /veh TMEM53 (11763286_at) / RFU MAGEB2 (11727129_at) / Fold change /veh MAGEB2 (11727129_at) / RFU TMEM200A (11744735_a_at) / Fold change /veh TMEM200A (11744735_a_at) / RFU CCDC152 (11751479_a_at) / Fold change /veh CCDC152 (11751479_a_at) / RFU FAM211A (11726209_a_at) / Fold change /veh FAM211A (11726209_a_at) / RFU RGS16 (11746705_a_at) / Fold change /veh RGS16 (11746705_a_at) / RFU VCAN (11755009_s_at) / Fold change /veh VCAN (11755009_s_at) / RFU RHOB (11743442_s_at) / Fold change /veh RHOB (11743442_s_at) / RFU RGS16 (11720943_a_at) / Fold change /veh RGS16 (11720943_a_at) / RFU RGS16 (11720944_at) / Fold change /veh RGS16 (11720944_at) / RFU, VPS4B / Fold change vs veh, VPS4B / RFU, CREB1 / Fold change vs veh, CREB1 / RFU, DNAJC13 / Fold change vs veh, DNAJC13 / RFU, GNAQ / Fold change vs veh, GNAQ / RFU, CDK5R1 / Fold change vs veh, CDK5R1 / RFU, ZRANB3 / Fold change vs veh, ZRANB3 / RFU, CUL4A / Fold change vs veh, CUL4A / RFU, CCNY / Fold change vs veh, CCNY / RFU, UFL1 / Fold change vs veh, UFL1 / RFU, COG3 / Fold change vs veh, COG3 / RFU, DIAPH2 / Fold change vs veh, DIAPH2 / RFU, SKA2 / Fold change vs veh, SKA2 / RFU, AFF3 / Fold change vs veh, AFF3 / RFU, LMF1 / Fold change vs veh, LMF1 / RFU, IPO11 / Fold change vs veh, IPO11 / RFU, DFFB / Fold change vs veh, DFFB / RFU, FOXP1 / Fold change vs veh, FOXP1 / RFU, CARD8 / Fold change vs veh, CARD8 / RFU, STRN3 / Fold change vs veh, STRN3 / RFU, ADK / Fold change vs veh, ADK / RFU, RASSF2 / Fold change vs veh, RASSF2 / RFU, WIPF1 / Fold change vs veh, WIPF1 / RFU, LARP1B / Fold change vs veh, LARP1B / RFU, RASA1 / Fold change vs veh, RASA1 / RFU, RB1 / Fold change vs veh, RB1 / RFU, PPFIA1 / Fold change vs veh, PPFIA1 / RFU, MAT2A / Fold change vs veh, MAT2A / RFU, CCT5 / Fold change vs veh, CCT5 / RFU, WDR92 / Fold change vs veh, WDR92 / RFU, CUX1 / Fold change vs veh, CUX1 / RFU, TTC7A / Fold change vs veh, TTC7A / RFU, TMEM135 / Fold change vs veh, TMEM135 / RFU, DEPTOR / Fold change vs veh, DEPTOR / RFU, CPM / Fold change vs veh, CPM / RFU, DNAJB6 / Fold change vs veh, DNAJB6 / RFU, CACNA2D3 / Fold change vs veh, CACNA2D3 / RFU, DTX4 / Fold change vs veh, DTX4 / RFU, TFCP2 / Fold change vs veh, TFCP2 / RFU, GMCL1 /// GMCL1P1 / Fold change vs veh, GMCL1 /// GMCL1P1 / RFU, AEBP2 / Fold change vs veh, AEBP2 / RFU, SNHG1 /// SNORD22 /// SNORD25 /// SNORD26 /// SNORD27 /// SNORD28 /// SNORD29 /// SNORD31 / Fold change vs veh, SNHG1 /// SNORD22 /// SNORD25 /// SNORD26 /// SNORD27 /// SNORD28 /// SNORD29 /// SNORD31 / Fold change (Aza/veh), C12orf56 (ProbeSet 11735607_a_at) / Fold change (ACY-1035/veh), C12orf56 (ProbeSet 11735607_a_at) / Fold change (Aza/veh), FGFR1OP (ProbeSet 11751329_s_at) / Fold change (ACY-1035/veh), FGFR1OP (ProbeSet 11751329_s_at) / Fold change (Aza/veh), VPS36 (ProbeSet 11739960_a_at) / Fold change (ACY-1035/veh), VPS36 (ProbeSet 11739960_a_at) / RFU SYPL1 (11715823_x_at) / Fold change /veh SYPL1 (11715823_x_at) / RFU IGFBP7 (11715501_s_at) / Fold change /veh IGFBP7 (11715501_s_at) / RFU REEP3 (11722064_at) / Fold change /veh REEP3 (11722064_at) / RFU IGLL1 (11728026_x_at) / Fold change /veh IGLL1 (11728026_x_at): dose or concentration left out as unconfirmed. The conditions noted are these: MV-4-11 cells, 48 hours.

The structures appear in SMILES notation.

For the compound `Nc1ncn([C@@H]2O[C@H](CO)[C@@H](O)[C@H]2O)c(=O)n1` [azacitidine], the “Fold change /veh CMKLR1 (11741424_a_at)” value came to 1.02.
